Data published in the NIST ThermoML archive (doi:10.1016/j.fluid.2005.06.022).
Numbers after ± are expanded uncertainties.

Key:
[1] = Liquid; for molar volume: 101.33 kPa
[2] = refractive index (Na D-line) (dimensionless); conditions: 101.33 kPa, Liquid, Standard Abbe refractometry

molar volume ([1]; 293.15 K) [m3/mol]	refractive index ([2]; 293.15 K)	Compound	molar volume ([1]; 298.15 K) [m3/mol]	refractive index ([2]; 298.15 K)	also measured
9.138e-05 ± 5.1e-07	1.505 ± 0.0012	Cc1cnccn1 [2-methylpyrazine]			vapor or sublimation pressure ([1]; 396.65 K): 94.7 ± 4.8 kPa
0.0001038 ± 5.7e-07	1.451 ± 0.0012	O=C1CCCCC1 [cyclohexanone]			vapor or sublimation pressure ([1]; 426.35 K): 94.7 ± 4.8 kPa; vapor or sublimation pressure ([1]; 426.85 K): 94.7 ± 4.8 kPa

The remaining lines, values behind:

Compound	molar volume ([1]; 293.15 K) [m3/mol]	refractive index ([2]; 293.15 K)	molar volume ([1]; 298.15 K) [m3/mol]	refractive index ([2]; 298.15 K)	also measured
ClC(Cl)(Cl)Cl [tetrachloromethane]			9.708e-05 ± 6e-07	1.4574 ± 0.0012	vapor or sublimation pressure ([1]; 347.85 K): 94.7 ± 4.8 kPa
N#Cc1cnccn1 [2-cyanopyrazine]	8.952e-05 ± 5.2e-07	1.534 ± 0.0012			vapor or sublimation pressure ([1]; 476.05 K): 94.7 ± 4.8 kPa
C=CC#N [acrylonitrile]			6.629e-05 ± 3.6e-07	1.3888 ± 0.0012	vapor or sublimation pressure ([1]; 348.55 K): 94.7 ± 4.8 kPa
C1CCCCC1 [cyclohexane]			0.0001087 ± 5.9e-07	1.4235 ± 0.0012	vapor or sublimation pressure ([1]; 351.85 K): 94.7 ± 4.8 kPa
